Source: ChEMBL document CHEMBL3885861, “Open TG-GATES”

Species on record: Rattus norvegicus
Assay: Open TG-GATES - Regimen: Single
Assay type: toxicity, organism-based, Sprague-Dawley
Design: regimen Single, gender Male, age 6 weeks
Settings: in vivo, po, 0 mg/kg, route gavage, dose level Control; for APTT / Bas / Eos / Fbg / Hb / Ht / Lym / MCH / MCHC / MCV / Mono / Neu / PT / Plat / RBC / Ret / WBC: tissue Blood; for KIDNEY_L / KIDNEY_R / KIDNEY_TOTAL: tissue Kidney; for LIVER: tissue Liver; for A/G / ALP / ALT / AST / BUN / CRE / Ca / Cl / DBIL / GLC / IP / K / LDH / Na / PL / RALB / TBIL / TC / TG / TP / gamma-GTP: tissue Plasma

## NC1=NC(=O)C(c2ccccc2)O1 (configuration not stated) [PEMOLINE]
3 h
  TERMINAL_BW: 210.7 g
  APTT: 17.2 s
  Bas: 0%
  Eos: 0.8%
  Fbg: 266 mg/dL
  Hb: 13.1 g/dL
  Ht: 38.2%
  Lym: 78.2%
  MCH: 21.6 pg
  MCHC: 34.3%
  MCV: 62.9 fL
  Mono: 3.8%
  Neu: 16.6%
  PT: 13.4 s
  Plat: 113.2 x10_4/uL
  RBC: 609.4 x10_4/ul
  Ret: 9.5%
  WBC: 87.4 x10_2/uL
  KIDNEY_L: 0.9 g
  KIDNEY_R: 1 g
  KIDNEY_TOTAL: 1.9 g
  LIVER: 9.1 g
  A/G: 1
  ALP: 1454.8 IU/L
  ALT: 44.8 IU/L
  AST: 77 IU/L
  BUN: 9.8 mg/dL
  CRE: 0.2 mg/dL
  Ca: 10.7 mg/dL
  Cl: 104.2 meq/L
  DBIL: 0.014 mg/dL
  GLC: 175.2 mg/dL
  IP: 8.8 mg/dL
  K: 4 meq/L
  LDH: 69.6 IU/L
  Na: 139.8 meq/L
  PL: 127 mg/dL
  RALB: 2.6 g/dL
  TBIL: 0.044 mg/dL
  TC: 78 mg/dL
  TG: 40.4 mg/dL
  TP: 5.3 g/dL
  gamma-GTP: 1.2 IU/L
6 h
  TERMINAL_BW: 209.5 g
  APTT: 17.2 s
  Bas: 0%
  Eos: 1%
  Fbg: 286.2 mg/dL
  Hb: 13.3 g/dL
  Ht: 39.1%
  Lym: 77.6%
  MCH: 22.4 pg
  MCHC: 34.1%
  MCV: 65.9 fL
  Mono: 3%
  Neu: 18%
  PT: 13.2 s
  Plat: 117 x10_4/uL
  RBC: 594.6 x10_4/ul
  Ret: 9.1%
  WBC: 88.4 x10_2/uL
  KIDNEY_L: 0.9 g
  KIDNEY_R: 0.9 g
  KIDNEY_TOTAL: 1.8 g
  LIVER: 8.8 g
  A/G: 1
  ALP: 1338 IU/L
  ALT: 41.2 IU/L
  AST: 72.8 IU/L
  BUN: 8.2 mg/dL
  CRE: 0.2 mg/dL
  Ca: 10.6 mg/dL
  Cl: 104.4 meq/L
  DBIL: 0.01 mg/dL
  GLC: 173.8 mg/dL
  IP: 9.4 mg/dL
  K: 3.9 meq/L
  LDH: 57.6 IU/L
  Na: 140.4 meq/L
  PL: 138.6 mg/dL
  RALB: 2.6 g/dL
  TBIL: 0.038 mg/dL
  TC: 84.2 mg/dL
  TG: 46.8 mg/dL
  TP: 5.3 g/dL
  gamma-GTP: 1.2 IU/L
9 h
  TERMINAL_BW: 210.1 g
  APTT: 17.2 s
  Bas: 0%
  Eos: 1%
  Fbg: 293.8 mg/dL
  Hb: 12.8 g/dL
  Ht: 37.5%
  Lym: 75.4%
  MCH: 21.5 pg
  MCHC: 34.2%
  MCV: 62.8 fL
  Mono: 3.2%
  Neu: 20.2%
  PT: 13.3 s
  Plat: 127.3 x10_4/uL
  RBC: 598.8 x10_4/ul
  Ret: 9.5%
  WBC: 89 x10_2/uL
  KIDNEY_L: 0.9 g
  KIDNEY_R: 0.9 g
  KIDNEY_TOTAL: 1.7 g
  LIVER: 8.1 g
  A/G: 1
  ALP: 1391.4 IU/L
  ALT: 41.6 IU/L
  AST: 74.8 IU/L
  BUN: 8.2 mg/dL
  CRE: 0.2 mg/dL
  Ca: 10.3 mg/dL
  Cl: 104.4 meq/L
  DBIL: 0.01 mg/dL
  GLC: 168.8 mg/dL
  IP: 10.7 mg/dL
  K: 3.8 meq/L
  LDH: 53.8 IU/L
  Na: 140.8 meq/L
  PL: 121.6 mg/dL
  RALB: 2.7 g/dL
  TBIL: 0.04 mg/dL
  TC: 74.2 mg/dL
  TG: 27.6 mg/dL
  TP: 5.3 g/dL
  gamma-GTP: 1.6 IU/L
24 h
  TERMINAL_BW: 216.7 g
  APTT: 17.2 s
  Bas: 0%
  Eos: 1%
  Fbg: 274.6 mg/dL
  Hb: 12.8 g/dL
  Ht: 37.7%
  Lym: 74.2%
  MCH: 21.8 pg
  MCHC: 34%
  MCV: 64.2 fL
  Mono: 3.8%
  Neu: 20.4%
  PT: 13 s
  Plat: 114.9 x10_4/uL
  RBC: 588.4 x10_4/ul
  Ret: 8.8%
  WBC: 92.6 x10_2/uL
  KIDNEY_L: 0.9 g
  KIDNEY_R: 0.9 g
  KIDNEY_TOTAL: 1.9 g
  LIVER: 9.9 g
  A/G: 1
  ALP: 1629.4 IU/L
  ALT: 50.4 IU/L
  AST: 79 IU/L
  BUN: 15 mg/dL
  CRE: 0.2 mg/dL
  Ca: 10.7 mg/dL
  Cl: 105 meq/L
  DBIL: 0.018 mg/dL
  GLC: 174.6 mg/dL
  IP: 8.2 mg/dL
  K: 4 meq/L
  LDH: 58.8 IU/L
  Na: 141 meq/L
  PL: 144.6 mg/dL
  RALB: 2.7 g/dL
  TBIL: 0.032 mg/dL
  TC: 82.6 mg/dL
  TG: 89 mg/dL
  TP: 5.4 g/dL
  gamma-GTP: 1 IU/L
